# From patent US11384062B2 (CombiPhos Catalysts, Inc., priority 2017, dated 2022)
# Tests used:
# SF-268 = settings: 10 μM single dose; CNS Cancer SF-268
# Source text: (§1) The test compounds were screened for anticancer activity at the Development Therapeutic Program (DTP), National Cancer Institute (NCI), USA, against a full NCI 59 cell line panel (six cell lines of leukemia, nine cell lines of lung cancer, seven cell lines of colon cancer, six cell lines of CNS cancer, nine cell lines of melanoma, seven cell lines of ovarian cancer, seven cell lines of renal cancer, two cell lines of prostate cancer, and six cell lines of breast cancer) representing nine human systems in total as leukemia, melanoma, and cancers of the lungs, colon, brain, breast, ovary, kidney, and prostate, according to the applied protocol. A primary in vitro one dose anticancer assay was performed at a single dose (10 μM) against the full NCI 59 cell line panel. The one dose data was reported as a mean graph of the percent growth of treated cells. The number reported for the single dose assay was growth relative to the no drug control and relative to the initial number of cells at time 0. […] A value of −40 means 40% lethality. A value of −100 means all cells are dead.
# CCRF-CEM = settings: 10 μM single dose; Leukemia CCRF-CEM
# Source text: as §1
# SK-MEL-28 = settings: 10 μM single dose; Melanoma SK-MEL-28
# Source text: as §1
# HOP-62 = settings: 10 μM single dose; Non-Small Cell Lung Cancer HOP-62
# Source text: as §1
# A498 = settings: 10 μM single dose; Renal Cancer A498
# Source text: as §1
# MDA-MB-231/ATCC = settings: 10 μM single dose; Breast Cancer MDA-MB-231/ATCC
# Source text: as §1
# NCI/ADR-RES = settings: 10 μM single dose; Ovarian Cancer NCI/ADR-RES
# Source text: as §1
# MALME-3M = settings: 10 μM single dose; Melanoma MALME-3M
# Source text: as §1
# MDA-MB-468 = settings: 10 μM single dose; Breast Cancer MDA-MB-468
# Source text: as §1
# LOX IMVI = settings: 10 μM single dose; Melanoma LOX IMVI
# Source text: as §1
# HOP-92 = settings: 10 μM single dose; Non-Small Cell Lung Cancer HOP-92
# Source text: as §1
# UACC-62 = settings: 10 μM single dose; Melanoma UACC-62
# Source text: as §1
# HCT-15 = settings: 10 μM single dose; Colon Cancer HCT-15
# Source text: as §1
# BT-549 = settings: 10 μM single dose; Breast Cancer BT-549
# Source text: as §1
# SK-MEL-2 = settings: 10 μM single dose; Melanoma SK-MEL-2
# Source text: as §1
# MOLT-4 = settings: 10 μM single dose; Leukemia MOLT-4
# Source text: as §1
# MDA-MB-435 = settings: 10 μM single dose; Melanoma MDA-MB-435
# Source text: as §1
# SW-620 = settings: 10 μM single dose; Colon Cancer SW-620
# Source text: as §1
# SF-295 = settings: 10 μM single dose; CNS Cancer SF-295
# Source text: as §1
# PC-3 = settings: 10 μM single dose; Prostate Cancer PC-3
# Source text: as §1
# M14 = settings: 10 μM single dose; Melanoma M14
# Source text: as §1
# HT29 = settings: 10 μM single dose; Colon Cancer HT29
# Source text: as §1
structure (smiles),measurement,setting,value
"[2H]C1([2H])NC([2H])([2H])C([2H])(c2ccc(-n3cc4cccc(C(N)=O)c4n3)cc2)C([2H])([2H])C1([2H])[2H] (racemic) [Example 3, 2-(4-(piperidin-3-yl-2,2,3,4,4,5,5,6,6-d9)phenyl)-2H-indazole-7-carboxamide]",Growth Percentage,SF-268,88.94%
same,Growth Percentage,CCRF-CEM,87.92%
same,Growth Percentage,SK-MEL-28,107.36%
same,Growth Percentage,HOP-62,93.86%
same,Growth Percentage,A498,90.94%
same,Growth Percentage,MDA-MB-231/ATCC,83.62%
same,Growth Percentage,NCI/ADR-RES,97.76%
same,Growth Percentage,MALME-3M,91.23%
same,Growth Percentage,MDA-MB-468,109.78%
same,Growth Percentage,LOX IMVI,76.95%
same,Growth Percentage,HOP-92,98.72%
same,Growth Percentage,UACC-62,84.84%
same,Growth Percentage,HCT-15,100.98%
same,Growth Percentage,BT-549,113.02%
same,Growth Percentage,SK-MEL-2,117.90%
same,Growth Percentage,MOLT-4,86.53%
same,Growth Percentage,MDA-MB-435,98.88%
same,Growth Percentage,SW-620,84.69%
same,Growth Percentage,SF-295,96.74%
same,Growth Percentage,PC-3,80.86%
same,Growth Percentage,M14,98.03%
same,Growth Percentage,HT29,93.28%
"[2H]c1c([2H])c(-n2nc3c(C(N)=O)cccc3c2[2H])c([2H])c([2H])c1C1CCCNC1 (racemic) [Example 11, 2-(4-(piperidin-3-yl)phenyl-2,3,5,6-d4)-2H-indazole-3-d-7-carboxamide]",Growth Percentage,SF-268,82.89%
same,Growth Percentage,CCRF-CEM,68.34%
same,Growth Percentage,SK-MEL-28,101.33%
same,Growth Percentage,HOP-62,94.55%
same,Growth Percentage,A498,83.22%
same,Growth Percentage,MDA-MB-231/ATCC,76.99%
same,Growth Percentage,NCI/ADR-RES,89.85%
same,Growth Percentage,MALME-3M,92.14%
same,Growth Percentage,MDA-MB-468,87.13%
same,Growth Percentage,LOX IMVI,71.49%
same,Growth Percentage,HOP-92,79.03%
same,Growth Percentage,UACC-62,76.75%
same,Growth Percentage,HCT-15,85.76%
same,Growth Percentage,BT-549,91.44%
same,Growth Percentage,SK-MEL-2,108.51%
same,Growth Percentage,MOLT-4,71.06%
same,Growth Percentage,MDA-MB-435,91.99%
same,Growth Percentage,SW-620,72.01%
same,Growth Percentage,SF-295,90.94%
same,Growth Percentage,PC-3,68.67%
same,Growth Percentage,M14,90.64%
same,Growth Percentage,HT29,87.71%
"[2H]c1c([2H])c(C2([2H])C([2H])NC([2H])C([2H])C2[2H])c([2H])c([2H])c1-n1cc2cccc(C(N)=O)c2n1 (stereo not shown) [Example 4, 2-(4-(piperidin-3-yl-2,3,4,5,6-d5)phenyl-2,3,5,6-d4)-2H-indazole-7-carboxamide]",Growth Percentage,SF-268,89.52%
same,Growth Percentage,CCRF-CEM,89.50%
same,Growth Percentage,SK-MEL-28,98.37%
same,Growth Percentage,A498,89.03%
same,Growth Percentage,MDA-MB-231/ATCC,80.47%
same,Growth Percentage,NCI/ADR-RES,84.74%
same,Growth Percentage,MALME-3M,79.53%
same,Growth Percentage,MDA-MB-468,86.59%
same,Growth Percentage,LOX IMVI,70.64%
same,Growth Percentage,HOP-92,90.59%
same,Growth Percentage,UACC-62,85.29%
same,Growth Percentage,BT-549,99.58%
same,Growth Percentage,SK-MEL-2,101.94%
same,Growth Percentage,MOLT-4,78.10%
same,Growth Percentage,MDA-MB-435,92.97%
same,Growth Percentage,SW-620,72.23%
same,Growth Percentage,SF-295,85.63%
same,Growth Percentage,PC-3,85.40%
same,Growth Percentage,M14,84.68%
same,Growth Percentage,HT29,77.66%
